What was measured:
[1] = Storage stability of the prepared acid; type: physicochemical
[2] = Effect in the treatment of estrogen-dependent diseases, keto form compared with hydroxy compound
aromatase [3] = target: T1, aromatase (Homo sapiens, UniProt P11511); assay: Inhibition of aromatase activity, placenta microsomes, substrate androstenedione 100 nM (Example 4); type: biochemical
T1 construct: suspension of human placenta microsomes as a source of aromatase enzyme; from tissue; host or cells: human placenta microsomes
T1 sequence (P11511 1-503): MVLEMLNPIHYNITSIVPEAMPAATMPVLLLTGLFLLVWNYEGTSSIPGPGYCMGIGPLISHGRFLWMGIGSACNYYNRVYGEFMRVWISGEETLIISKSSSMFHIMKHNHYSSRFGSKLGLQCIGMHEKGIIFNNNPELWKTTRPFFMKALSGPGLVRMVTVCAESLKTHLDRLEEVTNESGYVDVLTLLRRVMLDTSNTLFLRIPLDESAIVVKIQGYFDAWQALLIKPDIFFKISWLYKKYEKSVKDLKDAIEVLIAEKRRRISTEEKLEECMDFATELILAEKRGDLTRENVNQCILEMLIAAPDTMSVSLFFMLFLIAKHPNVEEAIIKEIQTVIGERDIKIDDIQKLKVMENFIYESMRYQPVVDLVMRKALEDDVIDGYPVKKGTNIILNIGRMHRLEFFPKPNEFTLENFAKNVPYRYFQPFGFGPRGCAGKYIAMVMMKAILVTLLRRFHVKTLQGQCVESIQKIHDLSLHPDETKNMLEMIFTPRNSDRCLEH

aromatase [4] = target: T1, aromatase; assay: Inhibition of aromatase activity, placenta microsomes, substrate androstenedione 10 nM (Example 3); type: biochemical; conditions: 10 min
Procedure: Inhibitor tests were carried out with a suspension of human placenta microsomes as a source of aromatase enzyme. The substrate used in these competitive inhibition tests was androstenedione.
Experimental conditions for enzyme inhibition
enzyme source: placenta microsomes
substrate: androstenedione (10 nM)
tracer: ^3 H-androstenedione
Co-substrate: NADPH-regenerating system
The substrate, ^3 H-androstenedione was incubated in the presence of aromatase enzyme with and without the acid inhibitor. The aromatization of androstenedione to estradiol was measured by the release of ^3 H2 O in the process of aromatization. Aromatase activity in the presence of 9-hydroxy-10(trans)-12(cis)-octadecadienoic acid was compared with that of a control group without this inhibiting additive. Aromatase activity is shown as percent of reaction in table 2.

CCCCC/C=C\C=C\C(=O)CCCCCCCC(=O)O [9-oxo-10(trans)-12(cis)-octadecadienic acid]
stability compared with the product of Example 1 [1]: equally unstable as the product of Example 1 | effect by comparison with the hydroxy compound [2]: 10 fold | activity at 1 µg/mL (aromatase [3]; 10 min, inhibitor 1 mg/l, androstenedione 100 nM, 10 minutes, average value ± S.D. (n = 3), without inhibitor 100 ± 9.1, read-out: Aromatase activity (% reaction) with inhibitor): 58.3 ± 3.6% | activity at 10 µg/mL (aromatase [3]; 10 min, inhibitor 10 mg/l, androstenedione 100 nM, 10 minutes, average value ± S.D. (n = 3), without inhibitor 100 ± 8.1, read-out: Aromatase activity (% reaction) with inhibitor): 19.3 ± 3.4% | activity at 100 µg/mL (aromatase [3]; 10 min, inhibitor 100 mg/l, androstenedione 100 nM, 10 minutes, average value ± S.D. (n = 3), without inhibitor 100 ± 5.5, read-out: Aromatase activity (% reaction) with inhibitor): 6.2 ± 2.9% | inhibition of aromatase (in words) (aromatase [3]; Example 4, table 4): stronger aromatase inhibiting effect | aromatase inhibiting effect relative to the acid in hydroxy form (aromatase [3]; from tables 2 and 4, displacement with respect to the concentration of the inhibitor): about 10 times stronger

CCCCC/C=C\C=C\C(O)CCCCCCCC(=O)O (stereo not drawn) [9-hydroxy-10(trans)-12(cis)-octadecadienic acid]
storage stability ([1]; even at minus 20° C): only storable to a limited extent even at minus 20 °C | activity at 1 µg/mL (aromatase [4]; inhibitor 1 mg/l, without inhibitor 100 ± 9.1, read-out: Aromatase Activity (% reaction) with inhibitor): 94.4 ± 1.2% | activity at 10 µg/mL (aromatase [4]; inhibitor 10 mg/l, without inhibitor 100 ± 8.1, read-out: Aromatase Activity (% reaction) with inhibitor): 53.8 ± 3.8% | activity at 100 µg/mL (aromatase [4]; inhibitor 100 mg/l, without inhibitor 100 ± 5.5, read-out: Aromatase Activity (% reaction) with inhibitor): 16.2 ± 3.2%

Reference: US5102912A, “Hydroxyoctadecadienic acid for the treatment of estrogen-dependent disease” (Kanoldt Arzneimittel GmbH, priority 1990, dated 1992)
